Results on 16 molecules are retold here after patent US5811456A, “Monoamine oxidase B inhibitors, processes for their preparation and use thereof” (priority 1994, dated 1998).

Like-named read-outs stand apart in the source and are kept apart here.

The target of one data set is T1, rat brain MAO B (Rattus norvegicus, UniProt P19643).
T1 construct: makes it possible to obtain a pellet enriched in mitochondria; from tissue; host or cells: Wistar rat brain without cerebellum, mitochondria-enriched pellet
T1 sequence (P19643 1-520): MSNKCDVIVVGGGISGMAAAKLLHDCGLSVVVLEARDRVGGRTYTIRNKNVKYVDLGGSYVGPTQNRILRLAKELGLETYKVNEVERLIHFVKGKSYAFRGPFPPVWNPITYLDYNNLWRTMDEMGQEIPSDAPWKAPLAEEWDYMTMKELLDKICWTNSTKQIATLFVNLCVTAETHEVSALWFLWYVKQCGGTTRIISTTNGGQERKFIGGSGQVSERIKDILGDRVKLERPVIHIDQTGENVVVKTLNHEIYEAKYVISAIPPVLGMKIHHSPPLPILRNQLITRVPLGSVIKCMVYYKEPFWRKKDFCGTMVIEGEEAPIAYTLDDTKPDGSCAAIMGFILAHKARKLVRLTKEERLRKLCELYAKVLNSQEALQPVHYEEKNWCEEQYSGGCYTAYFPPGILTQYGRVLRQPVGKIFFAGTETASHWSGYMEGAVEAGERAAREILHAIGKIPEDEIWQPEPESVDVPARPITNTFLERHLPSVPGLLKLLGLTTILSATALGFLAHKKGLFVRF
Nature of the data set: Inhibitory activity toward rat brain MAO B in vitro (14C-beta-phenylethylamine substrate). The class given is biochemical.

Data set [1] can be described thus: MTT cytotoxicity test on adherent cells. Conditions: human, hela ohio cells; for CC50 at 24 h: read-out: LD50 (concentration for which 50% of the cells are killed); for MNTC at 24 h: read-out: MC100 (maximum concentration for which all the cells are alive). The class given is cell-based. (Formazan colour is commonly taken as a measure of viable cells.)
Data set [2] in a line: Cytotoxicity test on the cells in suspension (Trypan blue). The format is cell-based. Conditions: human, daudi cells; for CC50 at 24 h: read-out: LD50 (concentration for which 50% of the cells are killed); for MNTC at 24 h: read-out: MC100 (maximum concentration for which all the cells are alive).
Another data set deals with T2, rat brain MAO A (Rattus norvegicus, UniProt P21396).
T2 construct: makes it possible to obtain a pellet enriched in mitochondria; from tissue; host or cells: Wistar rat brain without cerebellum, mitochondria-enriched pellet
T2 sequence (P21396 1-526): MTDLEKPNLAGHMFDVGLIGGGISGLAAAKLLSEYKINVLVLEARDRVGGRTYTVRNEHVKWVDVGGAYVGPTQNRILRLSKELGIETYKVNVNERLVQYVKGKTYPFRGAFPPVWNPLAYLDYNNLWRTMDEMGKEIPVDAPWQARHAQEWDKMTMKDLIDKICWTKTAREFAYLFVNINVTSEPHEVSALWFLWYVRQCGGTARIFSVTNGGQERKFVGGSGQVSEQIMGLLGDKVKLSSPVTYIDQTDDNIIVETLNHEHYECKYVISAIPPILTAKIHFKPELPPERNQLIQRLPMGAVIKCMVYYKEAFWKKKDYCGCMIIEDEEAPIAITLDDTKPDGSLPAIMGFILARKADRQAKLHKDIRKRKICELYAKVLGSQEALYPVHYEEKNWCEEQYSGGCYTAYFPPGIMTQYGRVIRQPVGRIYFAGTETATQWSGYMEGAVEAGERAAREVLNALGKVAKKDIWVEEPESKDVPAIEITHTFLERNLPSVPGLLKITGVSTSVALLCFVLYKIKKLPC
Kind of data set: Inhibitory activity toward rat brain MAO A in vitro (14C-serotonin substrate). The format is biochemical.

For another data set, the system named is MAO A. Conditions: background; cited from earlier work.
For a further data set, the target named is T3, monoamine oxidase B (Rattus norvegicus, UniProt P19643).
T3 construct: from tissue; host or cells: rat brain mitochondria (inferred from section 21.1; not restated in section 21.2)
T3 sequence (P19643 1-520): T1 sequence (P19643 1-520)
Kind of data set: Reversibility of the inhibitory activity toward MAO B (residual activity before and after washing). Conditions: mean of 4 assays. The class given is biochemical.

For data set [3] the following is noted: background; cited from earlier work.
The mark [4] stands for this setting: ap: after preincubation (30 minutes, 37° C.), read-out: IC50 MAO B.
[5] abbreviates: wp: without preincubation, read-out: IC50 MAO B.
The mark [6] stands for this setting: ap: after preincubation (30 minutes, 37° C.).

The term IC50 denotes the midpoint of a concentration-inhibition curve. Consider `CCOC(=O)N(CCC#N)N=Cc1ccc(OCc2ccccc2)cc1` [I-b2, 4-(Benzylozy)benzaldehyde (2-cyanoethyl)(ethoxycarbonyl)hydrazone], for which the IC50 on rat brain MAO B (setting [4]) was found to be 6.3 µM; on rat brain MAO B (setting [5]), 22 µM.
As to `COc1ccc(COc2ccc(C=NN(CCC#N)C(C)=O)cc2)cc1` [I-a2.4], the CC50 at 24 h in data set [1] amounted to 40 µM; in data set [2], 65 µM. In addition, the MNTC at 24 h in data set [1] was determined as 2300 nM; in data set [2], 12.5 µM. In addition, the IC50 at rat brain MAO B (setting [4]) turned out to be 2.15 µM; on rat brain MAO B (setting [5]) it was 28 µM.
Consider `CC(=O)N(CCC#N)N=Cc1ccc(OCc2ccc(Cl)cc2Cl)cc1` [I-a2.5, 4-[(2,4-Dichlorobenzyl)oxy]benzaldehyde acetyl(2-cyanoethyl)hydrazone], for which half-maximal inhibition against rat brain MAO B (IC50) was put at 0.38 µM. The “IC50 MAO B” value on rat brain MAO B (wp: without preincubation) is recorded as “precipitate”.
In the case of `CCOC(=O)N(CCO)N=Cc1ccc(OCc2ccccc2)cc1` [I-b4, 4-(Benzyloxy)benzaldehyde (2-hydroxyethyl)(ethoxycarbonyl)hydrazone], the IC50 on rat brain MAO B (setting [4]) is 10 µM; at rat brain MAO B (setting [5]), 35 µM.
Take `CC(=O)N(CCC#N)N=Cc1ccc(OCCc2ccccc2)cc1` [I-a6, 4-(2-Phenylethozy)benzaldehyde acetyl(2-cyanoethyl)hydrazone]: the IC50 was found to be 6.8 µM against rat brain MAO A (setting [6]), 53 µM on rat brain MAO A (wp: without preincubation), 0.015 µM on rat brain MAO B (setting [4]) and 3 µM at rat brain MAO B (setting [5]).
`CNC(=O)N(CCC#N)N=Cc1ccc(OCc2ccccc2)cc1` [I-c2, 4-(benzyloxy)benzaldehyde (2-cyanoethyl)(N-methylcarbamoyl)hydrazone]: the values for the IC50 at rat brain MAO B (setting [4]) and at rat brain MAO B (setting [5]) were 2.5 µM and 1.8 µM, respectively.
Consider `C#CCN(C)CCCOc1ccc(Cl)cc1Cl` [clorgyline], for which the “inhibition of MAO A (in words)” value in the data set with MAO A is on record as “inhibit MAO A”.
In the case of `CC(=O)N(CCC#N)N=Cc1ccc(OCc2ccccc2)cc1` [I-a2, 4-(Benzyloxy)benzaldehyde acetyl(2-cyanoethyl)hydrazone], the “Percentage of residual MAO activity” value at monoamine oxidase B (after washing, 30 min) amounted to 105%; at monoamine oxidase B (before washing, 30 min incubation at 37° C.), 14%. Moreover, the CC50 at 24 h in data set [1] and in data set [2] was 100 µM each time. Besides, the figures for the MNTC at 24 h in data set [1] and in data set [2] were 10000 nM and 10 µM, respectively. The values for the IC50 on rat brain MAO B (setting [4]) and on rat brain MAO B (setting [5]) were 0.003 µM and 0.035 µM, respectively.
For the molecule `CC(=O)N(CCC#N)N=Cc1ccc(OCc2ccc([N+](=O)[O-])cc2)cc1` [I-a2.2], the CC50 at 24 h in data set [1] came to 30 µM; in data set [2], 22 µM. Also, the MNTC at 24 h in data set [1] was 650 nM; in data set [2], 10 µM. For the same molecule, the results for the IC50 on rat brain MAO B (setting [4]) and at rat brain MAO B (setting [5]) were 1.4 µM and 3 µM, respectively.
For the molecule `CC(=O)N(CCC#N)N=Cc1ccc(OCc2ccc(Cl)cc2)cc1` [I-a2.3], the MNTC at 24 h in data set [1] worked out at 600 nM; in data set [2] it was 10 µM. For the same molecule, the CC50 at 24 h in data set [2] was found to be 50 µM. For the same molecule, the IC50 at rat brain MAO B (setting [4]) turned out to be 0.245 µM; at rat brain MAO B (setting [5]) it was 11.3 µM.
With `CNC(=O)N(CCC#N)N=Cc1ccccc1` [I-c1, Benzaldehyde (2-cyanoethyl)(N-methylcarbamoyl)hydrazone], the IC50 at rat brain MAO B (setting [4]) amounted to 120 µM; on rat brain MAO B (setting [5]) it was 280 µM.
Regarding `CC(=O)N(CCC#N)N=Cc1ccc(OCc2ccc(C)cc2)cc1` [I-a2.1], the IC50 was 0.69 µM at rat brain MAO B (setting [4]) and 43 µM at rat brain MAO B (setting [5]).
`C#CCN(N=Cc1ccc(OCc2ccccc2)cc1)C(C)=O` [I-a10, 4-(Benzyloxy)benzaldehyde acetylpropargylhydrazone]: the IC50 on rat brain MAO B (setting [4]) was found to be 0.36 µM; on rat brain MAO B (setting [5]), 4.1 µM.
In the case of `CC(=O)N(CCO)N=Cc1ccc(OCc2ccccc2)cc1` [I-a4, 4-(Benzyloxy)benzaldehyde acetyl(2-hydroxyethyl)hydrazone], the IC50 turned out to be 50 µM against rat brain MAO A (setting [6]), 50 µM at rat brain MAO A (wp: without preincubation), 0.0063 µM on rat brain MAO B (setting [4]) and 0.028 µM on rat brain MAO B (setting [5]). The CC50 at 24 h in data set [1] and in data set [2] was 100 µM each time. The MNTC at 24 h in data set [1] is 10000 nM; in data set [2], 10 µM.
`C#CCN(C)C(C)Cc1ccccc1` (stereo not shown) [Deprenyl]: in data set [3], the “antidepressant effects (in words)” value is recorded as “lack antidepressant effects”.
For `C#CCN(C)Cc1ccccc1` [pargyline], in data set [3], the “antidepressant effects (in words)” value is reported as “lack antidepressant effects”. Further, the “inhibition of MAO A (in words)” value with MAO A was “inhibit MAO A”.
